Publication PMC6271143, “Novel Triphenylantimony(V) and Triphenylbismuth(V) Complexes with Benzoic Acid Derivatives: Structural Characterization, in Vitro Antileishmanial and Antibacterial Activities and Cytotoxicity against Macrophages” (Molecules, 2014)
Converted amounts (≈) assume the structure as drawn. Like-named read-outs stand apart in the source and are kept apart here.

Tests used:
[1] = test system: L. infantum promastigotes; assay: Antileishmanial activity assay (growth inhibition, absorbance at 600 nm) against L. infantum promastigotes; format: cell-based, Leishmania infantum (strain MCAN/BR/2002/BH400); settings: for IC50: promastigotes, IC50/72 h (source says 48 h), non-linear regression, read-out: IC50 (μM) ± SEM, L. infantum strain
Description: (§1) The four complexes, their metal salts and their respective free ligands were primarily tested for their activity to investigate whether they inhibit the growth of L. amazonensis and L. infantum promastigotes. The growth rate of the promastigotes incubated for […] in the presence of test compounds was compared to those of nontreated negative control and to those treated with the standard antileishmanial antimony(III) drug tartar emetic.
(§2) Leishmania amazonensis (strain MHOM/BR/1989/BA199) and Leishmania infantum (strain MCAN/BR/2002/BH400) promastigotes were maintained in minimum essential culture medium (α-MEM) (Gibco, Invitrogen, Grand Island, NY, USA) supplemented with 10% (v/v) heat inactivated fetal calf serum (Cultilab, Campinas, SP, Brazil), […] kanamycin, […] ampicillin, 2 mM L-glutamine, […] hemin, 5 mM biopterin, (Sigma-Aldrich), pH 7.0 and incubated at 25 °C [52].
(§3) Complexes 1-4 were evaluated in vitro for their activity against two wild type Leishmania parasites. Log-phase L. amazonensis and L. infantum promastigotes (1 × 10^6 parasites/mL) were seeded in 24-wells cell culture plates with 1.5 mL of α-MEM, incubated under shaking at 25 °C during 72 h in the presence of several concentrations of complex 1–4, free ligands HL1-2, and metal precursors M1-2. Non-treated parasites in the presence of DMSO solution and absence of any test compound were established for growth comparison. Stock solutions of the ligands, 2-acetylsalicylic acid and 3-acetoxybenzoic acid, their metal complexes 1–4, and metal salts, Ph3SbCl2 and Ph3BiCO3 were dissolved in DMSO and diluted in α-MEM cell culture medium to obtain the range of tested concentrations. […] For drug susceptibility assay, Leishmania growth curves were constructed by measuring absorbance at 600 nm. The antileishmanial activity is expressed as IC50/72 h, which is the concentration that reduces cell growth by 50% compared to untreated control (relative growth). All experiments were done at least three times as independent experiments performed in triplicate.
(§4) The IC50 and CC50 values were calculated by nonlinear regression using the software GraphPad Prism 5.0. The acceptable level of significance was 95% (p < 0.05).

[2] = test system: L. amazonensis promastigotes; assay: Antileishmanial activity assay (growth inhibition, absorbance at 600 nm) against L. amazonensis promastigotes; format: cell-based, Leishmania amazonensis (strain MHOM/BR/1989/BA199); settings: for IC50: promastigotes, IC50/72 h (source says 48 h), non-linear regression, read-out: IC50 (μM) ± SEM, L. amazonensis strain
Description: as §1, §2, §3, §4

[3] = test system: Staphyloccocus aureus (ATCC 6538); assay: Minimum inhibitory concentration, broth dilution (NCCLS M7-A6), S. aureus; format: cell-based, Staphylococcus aureus; settings: for MIC: ATCC 6538, 100% inhibition of growth, visual, 24 h at 37 °C; for d SI (selective index): ratio between MIC in murine macrophages and MIC in Staphylococcus aereus: as printed in footnote d
Description: (§5) Antimicrobial activity tests were performed in a quantitative way by determining the minimum inhibitory concentration (MIC) by the standard method for in vitro anti-bacterial susceptibility testing proposed by the National Committee for Clinical Laboratory Standards [NCCLS M7-A6] [56]. Sthaphyloccocus aureus [ATCC6538] and Pseudomonas aeruginosa [ATCC27853] stored in Müller–Hilton broth were sub-cultured for testing in the same medium and incubated for 24 h, respectively, at 37 °C. The bacterial cells of the two strains were suspended in Müller-Hilton broth to produce inocula of 10^8 CFU mL^–1, determined by a spectrophotometric method. Serial dilutions of the compounds, previously dissolved in DMSO, were prepared in 10 test tubes with Müller–Hilton broth to final concentrations from 100 μg mL^–1 to 0.20 μg mL^–1 for P. aeruginosa and S. aureus. An old inoculum of each strain was added to the tubes to obtain final concentrations of 10^5 CFU. […] Tests using tetracycline as positive control and DMSO as negative control were carried out in parallel. All tests were performed in triplicate with full agreement between the results.

[4] = test system: Pseudomonas aeruginosa (ATCC 27853); assay: Minimum inhibitory concentration, broth dilution (NCCLS M7-A6), P. aeruginosa; format: cell-based; settings: visual, 24 h at 37 °C
Description: as §5

[5] = test system: mouse peritoneal macrophages; assay: Cytotoxicity (MTT assay) against mouse peritoneal macrophages; format: cell-based, mouse (Balb/c); settings: 24 h, murine peritoneal macrophages, read-out: CC50: concentration that is cytotoxic against 50% of macrophages
Description: (§6) The in vitro cytotoxicity of the complexes, along their metal salts and ligands, was evaluated by means of the MTT assays towards mouse peritoneal macrophages. The results of in vitro cytotoxic activity are expressed as CC50, which is the concentration of compound that inhibits the viability of macrophages by 50% as compared to untreated macrophages control.
(§7) The concentration of studied compounds that is cytotoxic to 50% of the macrophages (CC50) was determined by the 3-(4,5-dimethylthiazol-2-yl)-2,5 diphenyltetrazolium bromide (MTT) method according to Mosmann. Briefly, peritoneal macrophages were obtained from Balb/c mice after intraperitoneal injection of 2 mL of 3% sodium thioglycolate medium. Mice were euthanized after 72 h, just before removal of peritoneal macrophages by washing with cold RPMI 1640 medium. The procedure was approved by the Internal Ethics Committee in Animal Experimentation (CEUA) of the Federal University of Uberlândia (Protocol 069/2013). After washing, the cell suspension (4.0 × 10^6/mL) was seeded (0.1 mL) in 96-well flat bottom plates. Macrophages were allowed to adhere for 2 h and non-adherent cells were removed by washing with RPMI. Then, the compounds were added to the wells at different concentrations and the cells were further cultured in RPMI-1640 supplemented with 10% FBS for 24 h at 37 °C in a humidified 5% CO2 atmosphere. Thereafter, the medium was replaced with fresh RPMI containing 0.5 mg/mL of MTT and the plates were incubated for additional 4 h. Supernatants were aspirated and the formazan crystals formed were dissolved in 100 μL of DMSO. After 15 min of incubation at room temperature, absorbance of solubilized MTT formazan product was spectrophotometrically measured at 570 nm.
as §4

[6] = Antileishmanial activity assay (growth inhibition, absorbance at 600 nm) against L. infantum promastigotes; format: cell-based, Leishmania infantum (strain MCAN/BR/2002/BH400); settings: Balb/c, mouse (macrophages); Leishmania infantum (promastigotes), pH 7; CC50 macrophages / IC50 L. infantum; read-out: a SI (selective index): ratio between CC50 in murine macrophages and IC50 in L. infantum
Description: as §1, §2, §3, §4

[7] = Antileishmanial activity assay (growth inhibition, absorbance at 600 nm) against L. amazonensis promastigotes; format: cell-based, Leishmania amazonensis (strain MHOM/BR/1989/BA199); settings: Balb/c, mouse (macrophages); Leishmania amazonensis (promastigotes), pH 7; CC50 macrophages / IC50 L. amazonensis; read-out: b SI (selective index): ratio between CC50 in murine macrophages and IC50 in L. amazonensis (WT)
Description: as §1, §2, §3, §4

[8] = Cytotoxicity (MTT assay) against mouse peritoneal macrophages; format: cell-based, mouse (Balb/c); settings: Balb/c, mouse, mouse peritoneal macrophages, murine peritoneal macrophages, read-out: CC50: concentration that is cytotoxic against 50% of macrophages
Description: as §6, §7, §4

[9] = test system: L. infantum promastigotes; assay: Antileishmanial activity assay (growth inhibition, absorbance at 600 nm) against L. infantum promastigotes; format: cell-based, Leishmania infantum (strain MCAN/BR/2002/BH400); settings: Leishmania infantum, IC50/72 h (source says 48 h), non-linear regression, read-out: IC50 (μM) ± SEM, L. infantum strain
[10] = test system: Pseudomonas aeruginosa (ATCC 27853); assay: Minimum inhibitory concentration, broth dilution (NCCLS M7-A6), P. aeruginosa; format: cell-based; settings: as printed in footnote c
[11] = test system: L. amazonensis promastigotes; set-up: method as in PMID 23099618; settings: read-out: IC50 (μM) ± SEM, L. amazonensis strain; cited from earlier work
[12] = test system: Pseudomonas aeruginosa (ATCC 27853); set-up: method as in doi:10.1016/j.molstruc.2010.11.048; settings: cited from earlier work
Leishmania promastigotes = test system: Leishmania promastigotes; set-up: method as in PMID 19633606; settings: cited from earlier work
[13] = Staphylococcus aureus, ATCC6538
[14] = Pseudomonas aeruginosa, ATCC27853, 100% inhibition of growth

| Molecule | a SI (selective index): ratio between CC50 in murine macrophages and IC50 in L. infantum [1] | IC50 [1] [µM] | b SI (selective index): ratio between CC50 in murine macrophages and IC50 in L. amazonensis (WT) [2] | IC50 [2] [µM] | MIC [3] [µM] | MIC ([4]; 100% inhibition of growth) [µM] | CC50 [5] [µM] | also measured |
| --- | --- | --- | --- | --- | --- | --- | --- | --- |
| CC(=O)Oc1ccccc1C(=O)[O][Sb]([O]C(=O)c1ccccc1OC(C)=O)([c]1ccccc1)([c]1ccccc1)[c]1ccccc1 [Complex 1, Bis-(acetylsalicylato)triphenylantimony(V)] | 4.51 | 13.3 ± 0.74 | 2.0 | 30.7 ± 3.43 | 140.6 | 140.6 | 60.5 ± 3.4 | – |
| CC(=O)Oc1ccccc1C(=O)[O][Bi]([O]C(=O)c1ccccc1OC(C)=O)([c]1ccccc1)([c]1ccccc1)[c]1ccccc1 [Complex 3, Bis-(acetylsalicylato)triphenylbismuth(V)] | 0.74 | 8.6 ± 1.36 | 0.75 | 8.5 ± 0.56 | 4.1 | 8.2 | 6.4 ± 0.5 | – |
| CC(=O)Oc1cccc(C(=O)[O][Bi]([O]C(=O)c2cccc(OC(C)=O)c2)([c]2ccccc2)([c]2ccccc2)[c]2ccccc2)c1 [Complex 4, Bis-(3-acetoxybenzoato)triphenylbismuth(V)] | <1 | 4 ± 0.39 | <1 | 2.9 ± 0.17 | 4.1 | 16.5 | 2 ± 0.1 | – |
| [Cl][Sb]([Cl])([c]1ccccc1)([c]1ccccc1)[c]1ccccc1 [Complex M1, triphenylantimony(V) dichloride] | 1.7 | 13.2 ± 2.03 | 2.4 | 9.3 ± 0.26 | 235.8 | 235.8 | 22.7 ± 0.93 | – |
| O=C([O-])[O-].c1cc[c]([Bi+2]([c]2ccccc2)[c]2ccccc2)cc1 [Complex M2, triphenylbismuth carbonate] | 10.6 | 1.1 ± 0.37 | 4.6 | 2.7 ± 0.34 | 24.5 | 48.9 | 12.1 ± 0.45 | – |
| CC(=O)Oc1ccccc1C(=O)O [HL1, acetylsalicylic acid] | – | – | – | – | – | – | – | selectivity ratio at 72 h [6]: < 1; selectivity ratio at 72 h [7]: < 1; MIC [3, 13]: > 555 µM; d SI (selective index): ratio between MIC in murine macrophages and MIC in Staphylococcus aereus [3]: <1; MIC [4, 14]: > 555 µM; CC50 at 24 h [8]: 580.1 ± 1.07 µM; IC50 [9]: 8990 µM; c SI (selective index): ratio between CC50 in murine macrophages and MIC in Pseudomonas aureginosa [10]: <1 |
| CC(=O)Oc1cccc(C(=O)O)c1 [HL2, 3-acetoxybenzoic acid] | – | – | – | – | – | – | – | selectivity ratio at 72 h [6]: < 1; selectivity ratio at 72 h [7]: < 1; MIC [3, 13]: > 555 µM; d SI (selective index): ratio between MIC in murine macrophages and MIC in Staphylococcus aereus [3]: <1; MIC [4, 14]: > 555 µM; CC50 at 24 h [8]: 2768 ± 9 µM; c SI (selective index): ratio between CC50 in murine macrophages and MIC in Pseudomonas aureginosa [10]: <1 |
| O=C([O-])[C@H]([O-])[C@@H]([O-])C(=O)[O-].O=C([O-])[C@H]([O-])[C@@H]([O-])C(=O)[O-].[K+].[K+].[Sb+3].[Sb+3] [TA, potassium antimony tartrate] | – | 100 ± 3 | – | – | – | – | – | IC50 [11]: 83 ± 1 µM |
| CN(C)[C@@H]1C(O)=C(C(N)=O)C(=O)[C@@]2(O)C(O)=C3C(=O)c4c(O)cccc4[C@@](C)(O)[C@H]3C[C@@H]12 [Tetracycline, tetracycline] | – | – | – | – | – | – | – | MIC [3, 13]: 3.5 µM (≈ 1.56 µg/mL); MIC, P. aeruginosa [12]: >96.7 [48] μM |
| Bis-(3-acetoxybenzoato)triphenylantimony(V) [Complex 2] | 2.45 | 12.2 ± 0.91 | 3.40 | 8.9 ± 0.36 | 140.6 | 140.6 | 30 ± 2.3 | – |
| meglumine antimoniate | – | – | – | – | – | – | – | activity in the promastigotes model (Leishmania promastigotes): inactive |
